Measurements: the supplement of paper PMC10883282
± gives the standard deviation of the averaged measurements.

Experiments:
Test in all cases: relative viability vs DMSO control (72 h) (fraction); higher = more viable cells
[1] = system: G401
In short: (§1)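 After seeding at densities set for 80–90% confluence in 384-well plates, sarcoma cell lines waited 24 h before 2.5 µl of serially diluted compound was added. Source plates held 10 mM down to 0.0002 mM. Plates were incubated 72 h at 37 °C with 5% CO2, with 0.1% DMSO vehicle and a 5 µM positive control, and relative viability was taken from ATPLite as percent growth averaged over up to triplicate wells, with 1 set as full and 0 as none.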

[2] = system: SK-LMS-1
In short: as §1

[3] = system: MES-SA
In short: as §1

[4] = system: SW872
In short: as §1

[5] = system: SYO-1
In short: as §1

[6] = system: A204
In short: as §1

[7] = system: SK-ES-1
In short: as §1

[8] = system: VA-ES-BJ
In short: as §1

[9] = system: SW684
In short: as §1

[10] = system: KHOS-NP
In short: as §1

[11] = system: RD
In short: as §1

[12] = system: HS729
In short: as §1

O=S(=O)(c1cccc2cnccc12)N1CCCNCC1 [Fasudil]
relative viability
Settings	0.00051 µM	0.00152 µM	0.00457 µM	0.01372 µM	0.04115 µM	0.1235 µM	0.3704 µM	1.111 µM	3.333 µM	10 µM
[1]	0.9413 ± 0.0077	0.92867 ± 0.0005	0.943 ± 0.034	0.948 ± 0.03	0.945 ± 0.039	0.975 ± 0.035	0.972 ± 0.042	0.984 ± 0.018	1.01 ± 0.046	1 ± 0.029
[2]	1.05 ± 0.073	1.05 ± 0.018	1.036 ± 0.0094	1.08 ± 0.021	1.03 ± 0.04	1.06 ± 0.055	1.03 ± 0.049	1.05 ± 0.013	1.01 ± 0.025	0.977 ± 0.05
[3]	0.955 ± 0.02	0.967 ± 0.034	0.96 ± 0.021	0.967 ± 0.017	0.992 ± 0.015	0.967 ± 0.0097	0.994 ± 0.036	0.987 ± 0.037	0.941 ± 0.022	0.895 ± 0.026
[4]	0.959 ± 0.024	0.979 ± 0.023	0.993 ± 0.037	0.964 ± 0.054	0.958 ± 0.033	0.9735 ± 0.0087	0.966 ± 0.05	0.9852 ± 0.0089	1 ± 0.015	0.929 ± 0.011
[5]	0.95 ± 0.033	0.984 ± 0.024	0.954 ± 0.038	0.9485 ± 0.0056	0.963 ± 0.036	0.954 ± 0.014	0.983 ± 0.02	0.97 ± 0.069	0.968 ± 0.014	0.902 ± 0.028
[6]	0.98 ± 0.03	1.03 ± 0.023	1.02 ± 0.047	1.02 ± 0.046	1.01 ± 0.029	0.987 ± 0.021	1.01 ± 0.011	0.991 ± 0.038	0.973 ± 0.059	0.891 ± 0.05
[7]	0.955 ± 0.017	0.964 ± 0.049	0.963 ± 0.013	0.967 ± 0.053	0.996 ± 0.033	0.989 ± 0.032	1 ± 0.039	1.02 ± 0.032	1.06 ± 0.013	1.04 ± 0.033
[8]	0.961 ± 0.044	0.962 ± 0.025	0.974 ± 0.02	0.984 ± 0.027	0.945 ± 0.021	0.964 ± 0.035	0.981 ± 0.036	0.985 ± 0.034	0.978 ± 0.042	0.95 ± 0.022
[9]	1.02 ± 0.069	1.02 ± 0.02	0.965 ± 0.013	0.945 ± 0.031	0.965 ± 0.08	0.986 ± 0.038	1.02 ± 0.041	0.95 ± 0.056	0.895 ± 0.058	0.761 ± 0.074
[10]	1.03 ± 0.039	1.04 ± 0.023	1.029 ± 0.0094	1.02 ± 0.015	1.01 ± 0.025	1.03 ± 0.022	1.02 ± 0.021	1.05 ± 0.021	1.01 ± 0.037	1.03 ± 0.021
[11]	0.969 ± 0.023	0.985 ± 0.03	0.952 ± 0.027	0.978 ± 0.028	0.963 ± 0.029	0.956 ± 0.028	0.961 ± 0.062	0.999 ± 0.061	1.05 ± 0.067	1.06 ± 0.07
[12]	0.949 ± 0.033	0.964 ± 0.029	1.01 ± 0.039	0.949 ± 0.032	0.953 ± 0.045	0.926 ± 0.047	0.974 ± 0.045	0.957 ± 0.074	0.925 ± 0.049	0.855 ± 0.019
